The record followed here is patent publication US20110071148A1, “COMPOUNDS AS THE ESTROGEN RELATED RECEPTORS MODULATORS AND THE USES THEREOF” (Guangzhou Institute of Biomedicine and Health, Chinese …, priority 2008, published 2011).

The nature of data set [1]: Oral glucose tolerance test in high-fat-diet mice. The conditions noted are these: compared to rosiglitazone 10 mg/kg/day. It counts as in vivo, C57BL/J6 mice. As to the method: Seven weeks old male C57BL/J6 mice were either fed chow diet or a high-fat-diet with 60% calories from lard for 10 weeks. Compounds were administered to animals by gavage for two weeks at different doses. Six groups of animals (n=5) were administered with either vehicle, 10 mg/kg/day rosiglitazone, 0.5 mg/kg/day DK1, 5 mg/kg/day DK1, 0.5 mg/kg/day DK3, or 5 mg/kg/day DK3. Animals were then orally fed glucose. Blood samples were withdrawn at time 0, 15, 30, 60 and 120 min. Blood glucose level was measured by monitor (Accu-chek Advantage, Roche). The changes in blood glucose level were plotted against time and the areas under the curve were calculated for the different groups.

The nature of data set [2]: Liver weight and fatty liver in high-fat-diet mice. It is filed as in vivo, C57BL/J6 mice. The conditions noted are these: for liver weight: compared to rosiglitazone 10 mg/kg/d. As to the method: Seven weeks old male C57BL/J6 mice were either fed chow diet or a high-fat-diet with 60% calories from lard for 10 weeks. Compounds were administered to animals by gavage for two weeks at different doses. Six groups of animals (n=5) were administered with either vehicle, 10 mg/kg/day rosiglitazone, 0.5 mg/kg/day DK1, 5 mg/kg/day DK1, 0.5 mg/kg/day DK3, or 5 mg/kg/day DK3. Total body weight and livers wet weight from animals were measured. Liver samples to from animals were prepared by histological methods.

Data set [3] concerns PGC1α-promoter reporter gene driven by ERRα. As to the kind of experiment: PGC1α-promoter luciferase reporter assay driven by ERRα in HeLa cells. It counts as cell-based, human. Particulars: about 24 hours, increasing concentrations, FIG. 4. An excerpt:
HeLa were transiently transfected with the pGL3-promoter (Promega) derivative pGL3-PGC1α-promoter and expression vector for ERRα. The Renilla-Luciferase pRL-CMV Vector (Promega) was included as a control for transfection efficiency. The full length human ERRα was cloned into the expression vector pCMV. The pGL3-PGC1α-promoter was generated by cloning an insert derived from a PCR reaction using human genomic DNA as template and primers based on the 2.6 kbp upstream sequence of the PGC1α transcriptional start site.
HeLa cells for the activation assays were grown in Dulbecco's modified Eagle's medium supplemented with 10% fetal bovine serum at 37° C. in 5% CO2. One day prior to transfection, cells were plated to 50-80% confluence using DMEM-FBS. The cells were transiently transfected by lipofection but other methods of transfection of DNA into cells can be utilized without deviating from the spirit of the invention. Luciferase reporter construct pGL3-PGC1α-promoter and cytomegalovirus-driven expression vector pCMV or pCMV -hERRα were added. The cells were treated for approximately 24 hours with DMEM-FBS containing 0.01% DMSO (control) or 0.01% DMSO with increasing concentrations of DK compounds.
(In a reporter assay the amount or activity of a reporter protein is the signal.)

The target in data set [4] is T1, GAL-hERRα (human ERRalpha ligand binding domain) (Homo sapiens, UniProt P11474).
T1 construct: expressed in transfected cells; host or cells: HeLa cells, transient lipofection
T1 sequence (P11474 193-421 limits assumed): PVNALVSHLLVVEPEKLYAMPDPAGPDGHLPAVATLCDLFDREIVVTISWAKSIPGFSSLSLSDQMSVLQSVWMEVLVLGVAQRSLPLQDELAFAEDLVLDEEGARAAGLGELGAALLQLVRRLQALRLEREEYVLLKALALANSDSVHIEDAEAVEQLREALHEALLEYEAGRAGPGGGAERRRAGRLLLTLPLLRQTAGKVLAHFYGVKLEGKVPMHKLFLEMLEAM
T1 sequence (P04386 1-147 partner limits assumed): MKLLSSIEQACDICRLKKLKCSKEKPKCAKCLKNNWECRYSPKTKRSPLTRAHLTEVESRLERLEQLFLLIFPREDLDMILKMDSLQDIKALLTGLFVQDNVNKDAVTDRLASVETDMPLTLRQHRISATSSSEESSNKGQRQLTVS
T1 sequence (O70343 whole entry partner, the tested form may be a part): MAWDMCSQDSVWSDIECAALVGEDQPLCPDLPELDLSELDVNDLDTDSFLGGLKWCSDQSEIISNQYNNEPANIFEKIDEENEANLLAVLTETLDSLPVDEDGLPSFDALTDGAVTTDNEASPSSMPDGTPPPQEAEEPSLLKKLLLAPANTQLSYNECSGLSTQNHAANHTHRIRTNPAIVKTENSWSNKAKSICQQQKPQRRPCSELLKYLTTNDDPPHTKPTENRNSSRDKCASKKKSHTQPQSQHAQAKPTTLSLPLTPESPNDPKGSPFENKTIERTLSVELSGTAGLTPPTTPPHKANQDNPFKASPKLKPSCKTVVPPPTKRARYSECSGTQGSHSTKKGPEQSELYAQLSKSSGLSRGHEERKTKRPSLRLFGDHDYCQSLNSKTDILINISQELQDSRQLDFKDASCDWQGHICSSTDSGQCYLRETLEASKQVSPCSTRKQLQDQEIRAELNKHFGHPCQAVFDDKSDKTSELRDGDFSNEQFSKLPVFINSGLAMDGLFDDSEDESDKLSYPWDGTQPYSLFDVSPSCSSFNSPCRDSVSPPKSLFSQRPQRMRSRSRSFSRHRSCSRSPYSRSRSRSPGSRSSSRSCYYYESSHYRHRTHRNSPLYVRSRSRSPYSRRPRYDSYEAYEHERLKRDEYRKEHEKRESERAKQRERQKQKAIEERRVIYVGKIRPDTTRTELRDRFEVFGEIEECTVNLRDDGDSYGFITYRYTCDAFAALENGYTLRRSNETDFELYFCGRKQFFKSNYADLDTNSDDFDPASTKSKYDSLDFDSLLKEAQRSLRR
As to the kind of experiment: GAL4-hERRα ligand binding domain luciferase reporter assay (UASgx4-TK-Luc with CMV-PGC-1α) in HeLa cells. It is filed as cell-based. Particulars: for expression of reporter genes modulated by ERRα: HeLa cell. How it is done: To test the effect of the compounds on ERRα and other nuclear hormone receptors, HeLa cells were transiently transfected with expression vectors for the receptors along with appropriate reporter constructs according to methods known in the art. Suitable reporter gene constructs are well known to skilled workers in the fields of biochemistry and molecular biology. Other vectors known in the art can be used in the methods of the present invention.
HeLa cells for the activation assays were grown in Dulbecco's modified Eagle's medium supplemented with 10% resin charcoal-stripped fetal bovine serum at 37° C. in 5% CO2. One day prior to transfection, cells were plated to 50-80% confluence to using phenol red free DMEM-FBS. The cells were transiently transfected by lipofection but other methods of transfection of DNA into cells can be utilized without deviating from the spirit of the invention. Luciferase reporter construct UASgx4-TK-Luc and cytomegalovirus-driven expression vector p-GAL, GAL-hERRα, GAL-L-hERRβ or Gal-mERRγ were added with CMV-PGC-1α. The cells were treated for approximately 24 hours with phenol red free DMEM-FBS containing 0.01% DMSO (control) or 0.01% DMSO with increasing concentrations of DK compounds.

Setting [5] is: 0.5 mg/kg/day by gavage for two weeks.
[6] abbreviates: 5 mg/kg/day by gavage for two weeks.

Regarding `COc1ccc2c(=O)n(C)c(-c3ccccc3)nc2c1` [Compound 1, 7-methoxy-3-methyl-2-phenylquinazolin-4(3H)-one], the “area under the curve of the oral glucose tolerance test” value in data set [1] (setting [5]) and in data set [1] (setting [6]) was “reduced” in each case. Besides, the liver weight entry in data set [2] (setting [5]) and in data set [2] (setting [6]) was “did not increase” each time. Moreover, in data set [2] (gavage for two weeks, histology, FIGS. 7 and 8), the “extent of fatty liver induced by high-fat-diet” value is on record as “reduce the extent of fatty liver”. Further, the “PGC1α-promoter reporter gene driven by ERRα” value in data set [3] is “dose-dependent enhancement”. In addition, in data set [4], the “expression of reporter genes modulated by ERRα” value (shortened to “expression”) is reported as “effectively enhance”. Also, in data set [4] (HeLa cells, FIG. 2), the “reversal of the suppressive effect of ERRα specific inverse agonist XCT-790” value is listed as “dose-dependently reverses”. Further, the “activity of GAL-hERRα on reporter construct UASgx4-TK-Luc” value in data set [4] (HeLa cells, in the presence of CMV-PGC-1α, increasing concentrations) is recorded as “dose-dependently enhances”.

On to `COc1ccc2c(=O)n(C)c(-c3ccc(F)cc3)nc2c1` [Compound 3, 2-(4-fluorophenyl)-7-methoxy-3-methylquinazolin-4(3H)-one], for which, in data set [4], the “expression” value was “effectively enhance”.

On to `COc1ccc2c(=O)n(C)c(-c3ccc(Br)cc3)nc2c1` [Compound 4, 2-(4-bromophenyl)-7-methoxy-3-methylquinazolin-4(3H)-one], for which the “expression” value in data set [4] was “effectively enhance”.
